The record followed here is patent US20080207738A1, “DRUG COMBINATIONS TO TREAT DRUG RESISTANT TUMORS” (priority 2007, published 2008).

One data set is described as follows: Solubility in water. The data set is classed as physicochemical. An excerpt:
In one embodiment, CCcompound104, CCcompound26 and EA may be administered orally. The two CC compounds are water-soluble, while EA is first dissolved in absolute ethanol and diluted in water or a suitable physiologically compatible liquid solvent. In one embodiment of the invention, the CC compounds and EA are in the form of a tablet, gel capsule, a liquid, or the like. In each case, the compounds are mixed with one or more carriers chosen by one having ordinary skill in the art to best suit the goal of treatment. In addition to the active compounds, the tablet or gel may contain any component that is presently used in the pharmaceutical field to ensure firmness, stability, solubility and appropriate taste. Any additional component of the tablet or gel will be chemically inert; i.e., it will not participate in a chemical reaction with the active compounds or the other additives. Each compound may be prepared for oral consumption separately, or the tablet, gel capsule or liquid may contain any of the two components or all three components. Tablets containing 25 mg or 50 mg of EA can be purchased from Merck.

The nature of the next data set: in vitro. Conditions: human, decrease of viability of healthy lymphocytes. An excerpt:
(§1) For the determination of relative number of viable cells before and after treatments, in most cases the MTT assay was used. This calorimetric assay is based on the ability of living cells, but not dead cells, to reduce 3-(4, 5-dimethyl thiazol-2-yl)-2, 5-diphenyltetrazolium bromide [Carmichael, J, De Graff, W. G., Gazdar, A. F., Minna, J. D. and Mitchell, J. B. (1987), “Evaluation oftetrazolium-based semiautomated calorimetric assay: Assessment of chemosensitivity testing,” Cancer Res., 47, 936-942]. For this assay, cells were plated in 96-well plates (10,000-30,000 cells in case of cultured cells, 100,000 cells in case of healthy lymphocytes, and 200,000 cells in case of chronic lymphocytic leukemia or non-Hodgkin lymphocytes) in the respective incubation media. After a 24-h resting period, the cells were treated with the test agents and then incubated (in CO2 incubator under humidified atmosphere) for 72 hours (final incubation volume, 150 μl). The MTT assay was performed both with the untreated and treated cell cultures at the conclusion of the incubation. Often, the MTT assay also was performed at the start of treatments to allow assessment of proliferation rates in the control and treated cell cultures. All data presented are the average of 4 incubations (in 4 separate wells) with the same cell population.
Peripheral lymphocytes are known to be very sensitive to chemotherapy and this sensitivity often limits the dose of chemotherapy that can be employed. In this series of experiments, the combined effects of CCcompound104 alone or in combination with CCcompound26 or CCcompound3 were determined on the viability of peripheral lymphocytes to establish doses that reduce cell viability less than 50%. As in previous experiments, the treatments were performed for 72 hours.

The test system of the next data set is MCF-7/ADR cells. In words: MTT cell viability, MCF-7/ADR cells. Conditions: 72 h; CCcompound104 5 μg/ml, EA 60 μM, CCcompound26/CCcompound3/CCcompound19 50 μM, alone or combined. It counts as cell-based, human. As to the method:
MCF/ADR cells were selected by incubating the parent MCF-7 with toxic concentrations (up to 10 μM) of adriamycin (doxorubicin). The selected drug resistant cells express both MDR1 and MRP1 among other molecular alterations as reviewed earlier [Kiss, Z., Tomono, M. and Anderson, W. B. (1994), “Phorbol ester selectively stimulates the phospholipase D-mediated hydrolysis of phosphatidylethanolamine in multidrug-resistant MCF-7 human breast carcinoma cells,” Biochem. J., 302, 649-654]. […] Ethacrynic acid (EA) alone, used at 60 μM concentration, decreased cell viability by about 24%, while CCcompound104 and EA in combination had 70% inhibitory effects (Table 7). In this cell line CCcompound104 and EA decreased cell viability synergistically.

In data set [1] the test system is parent L5178 mouse T-cell lymphoma cells. In words: MTT cell viability, parent L5178 cells. Conditions: Mus musculus, L5178, 72 h, read-out: Inhibition (%) of viability.
Excerpt: as §1
Parent L5178 cells were seeded at 10,000 cells per well in 96-well plates and then incubated for 72 hours in the absence or presence of CCcompound104 (1 or 5 μg/ml) and various concentrations of CCcompound26 as indicated in Table 5.
(§2) Epirubicin, like doxorubicin and other antracyclins, is an MDR1 substrate. The goal of this experiment was to use epirubicin as a model compound to determine if in L5178/MDR1 cells CCcompound104 also can enhance the effects of MDR1 substrate anti-cancer agents other than CCcompound26 and other thioxanthene or thioxanthone CC compounds. The parent and MDR1 expressing cells were seeded at 30,000 cells per well in 96-well microplates and after a 24-h resting period treated with increasing concentrations of epirubicin n in the absence or presence of 5 μg/ml of CCcompound104 for 72 hours.

For data set [2], the system named is L5178/MDR1 mouse T-cell lymphoma cells. In words: cells. Conditions: Mus musculus, T-cell, 72 h, read-out: Inhibition (%) of viability.
Excerpt: as §1
L5178/MDR1 cells were seeded at 10,000 cells per well in 96-well plates and then incubated for 72 hours in the absence or presence of 5 μg/ml of CCcompound104 and various concentrations of CCcompound26 as indicated in Table 6.
as §2

As for `C=CC[N+](CC)(CC)CC/C=C1/c2ccccc2Sc2ccc(C)cc21.[Br-]` [CCcompound26, N,N-Diethyl-N-allyl-3-(2-methyl-9H-thioxanthen-9-ylidene)-propan-1-aminiumbromide], the solubility in water entry in “Solubility in water” is on record as “water-soluble”. Moreover, the cytotoxicity at 72 h, 50 μM in the data set “in vitro” turned out to be 100%. Also, the cytotoxicity at 72 h, 1 μM in the data set “in vitro” (over 4 lymphocyte preparations) lay in the range of 3 to 13%. In the data set on MCF-7/ADR cells, the “Inhibition (%) of viability” value was 24.3%. Further, in data set [1], the cytotoxicity at 1.56 µM was determined as 55%, the cytotoxicity at 3.12 µM turned out to be 68% and the cytotoxicity at 6.25 µM was 80%. Moreover, in data set [2], the cytotoxicity at 1.56 µM was 0%, the cytotoxicity at 3.12 µM came out at 0%, the cytotoxicity at 6.25 µM amounted to 10% and the cytotoxicity at 12.5 µM was determined as 15%. Also, in data set [2], the cytotoxicity at 25 µM is 13% and the cytotoxicity at 100 µM was 56%.
